Data on 1 compound can be found in patent publication EP0986381B1, “USE OF DITERPENES LIKE HYPOESTOXIDES FOR THE MANUFACTURE OF A MEDICAMENT FOR IMMUNOSUPPRESSION, ANTICANCER AND ANTIVIRAL TREATMENT” (Immune Modulation, Inc., priority 1997, dated 1998).

Series [1] relates to normal human peripheral blood mononuclear cells. Nature of the series: Colorimetric MTT cytotoxicity assay, normal PBMC. Type of series: cell-based. To be noted: 72 hours. How it is done:
The following materials and methods were employed in the non-limiting Examples set out below. Tumor cells: Human cervical epitheloid carcinoma (HeLa), human renal clear cell carcinoma (CAKI-1), human malignant melanoma (RPMI-7951) and mouse malignant melanoma (B16-F1) were procured from ATCC (Rockville, MD) and maintained in vitro with MEM medium (Mediatech, Inc., Herndon, VA) supplemented with 10% heat-inactivated fetal bovine serum (American Qualex, San Clemente, CA), 10mM glutamine, 100 U/ml penicillin, and 100 µg/ml streptomycin (Sigma Chemicals, Saint Louis, MO) (complete medium). […] Cell viability was assessed by trypan blue dye exclusion test and the cell number was adjusted to required concentration. Colorimetric MTT assay: Cytotoxic effects of the hypoestoxide compounds of formulas I and II (JO-4A) were determined in vitro by a colorimetric assay (Mosmann, T., J. Immunol. Methods, 65: 55-63, 1983). […] Mixing with a multichannel pipetter dissolved the dark blue crystals and the absorbance was measured at 545-650 nm using an ELISA plate reader. […] The tumors were measured with a microcaliper, and the tumor volume was calculated by the formula: Length x width x height x 0.5236 (Jungwirth, A. et al., Proc. Natl. Acad. Sci. USA, 94:5810-5813, 1997). […]
(In general: Tetrazolium dyes change colour on reduction, which living cells bring about.)

The test system of another series is B16-F1 melanoma tumor. Briefly: B16-F1 melanoma tumor growth and survival in mice. The series is classed as in vivo, C57BL/6 (B6) mice. To be noted: for survival of mice: day 28. On the procedure:
The following materials and methods were employed in the non-limiting Examples set out below. Tumor cells: Human cervical epitheloid carcinoma (HeLa), human renal clear cell carcinoma (CAKI-1), human malignant melanoma (RPMI-7951) and mouse malignant melanoma (B16-F1) were procured from ATCC (Rockville, MD) and maintained in vitro with MEM medium (Mediatech, Inc., Herndon, VA) supplemented with 10% heat-inactivated fetal bovine serum (American Qualex, San Clemente, CA), 10mM glutamine, 100 U/ml penicillin, and 100 µg/ml streptomycin (Sigma Chemicals, Saint Louis, MO) (complete medium). Normal cells: Normal human cervical ectoepithelial cells (CrEc-Ec), normal human mammary epithelial cells (HMEC) and normal human umbilical vein endothelial cells (HUVEC) were obtained from Clonetics (San Diego, CA) and cultured with the respective recommended tissue culture medium obtained from Clonetics. Peripheral Blood Mononuclear cells (PBMC): Heparinized venous blood was obtained from healthy adult volunteers and PBMC were separated by centrifugation over Ficoll-Hypaque (Pharmacia Biotech, Piscataway, NJ). The cells were washed three times with HBSS (Hanks Balanced Salt Solution) and finally resuspended in complete medium. Cell viability was assessed by trypan blue dye exclusion test and the cell number was adjusted to required concentration. Colorimetric MTT assay: Cytotoxic effects of the hypoestoxide compounds of formulas I and II (JO-4A) were determined in vitro by a colorimetric assay (Mosmann, T., J. Immunol. Methods, 65: 55-63, 1983). Briefly, 1000 cells per well (100 µl) in a 96-well flat-bottom plate were cultured either with the culture medium alone or with various concentrations of drug at 37°C, in a 5% CO2-95% air humidified incubator for 72 hours. At the end of the culture, 10 µl of 5 mg/ml sterile solution of 3-(4,5-Dimethylthiazol-2yl)-2,5-diphenyltetrazolium bromide (MTT) (Sigma Chemicals, Saint Louis, MO) in PBS was added per well and the incubation was resumed for an additional 4 hours. Acid-isopropanol (100 µl of 0.04 N HCl in isopropanol) was added to all wells and kept at room temperature for 30 minutes. Mixing with a multichannel pipetter dissolved the dark blue crystals and the absorbance was measured at 545-650 nm using an ELISA plate reader. Mice: Eight-week-old female C57BL/6 (B6) mice were purchased from Charles River Laboratories (Wilmington, MA. The measurement of tumor volume in mice: B16-F1 melanoma cells growing exponentially in vitro were harvested by 15 minutes incubation with 0.25% trypsin-EDTA solution (Irvin Scientific, Irvine, CA). The mice were given subcutaneous (s.c.) injections of 50,000 viable cells on the right side (Fidler, I. J. Cancer Research 35:218-224, 1975). Four days after injection, the mice in the experimental group were gavaged orally with various concentrations of JO-4A in 0.2 ml of water and the control group received water alone. The tumors were measured with a microcaliper, and the tumor volume was calculated by the formula: Length x width x height x 0.5236 (Jungwirth, A. et al., Proc. Natl. Acad. Sci. USA, 94:5810-5813, 1997). Statistical analysis: Students' t-test was used to calculate the level of significance.

The test system of series [2] is HIV-1 isolate from a patient. Briefly: In vitro HIV-1 replication assay in PBMC, p24 antigen EIA. To be noted: Human immunodeficiency virus 1, 168 h, PHA-activated human PBMC, 7 days. Type of series: cell-based, Human Immunodeficiency Virus type 1. How it is done: In Vitro HIV-1 Replication Assay: A standardized peripheral blood mononuclear cell culture assay for the determination of drug susceptibilities of clinical human HIV-1 isolates was utilized (Japour AJ et al. Antimicro Agents Chemother 1993; 37:1095-1101). Peripheral blood mononuclear cells (2 x 10^6 cells/ml) were stimulated with PHA (5 µg/ml) in complete culture medium at 37°C, in a 5% CO2-95% air-humidified incubator for 72 hours. The 3-day-old PHA-stimulated PBMC was sedimented at 400 g for 10 min at 20-24°C. Supernatant was removed and discarded. The cells were resuspended in complete culture medium supplemented with 3% IL-2. Cell viability was determined with 0.4% trypan blue. Viability was greater than 85%. Cell concentration was adjusted to 4x10^6/ml. Cells were dispensed in 50 µl volumes (2x10^5/well) into 96 well microtiter plates containing 50 µl complete culture medium. HIV-1 infected cultures were initiated with a patient's HIV-1 isolate (50 µl/well) at a multiplicity of infection (MOI) of 0.05 and 0.1 respectively. JO-4A was added to wells in 50 µl volumes at varying concentrations (0.0001 µM - 0.5 µM). The plates were incubated at 37°C and 5% CO2 in humidified chamber for 7 days. On day 4, half of the spent medium (100 µl) was discarded, and 50 µl of fresh complete medium and 50 µl of fresh JO-4A (varying concentrations as above) were added to wells containing spent JO-4A. […]

In the case of `C=C1C(=O)CC2CC3OC3(C)CCC3OC3(C)CC(O)C1C2(C)C` (centres unmarked) [JO-4A], the cytotoxic effect result in series [1] was “no cytotoxic effect”. Also, the survival of mice is listed as 17% in the series with B16-F1 melanoma tumor (0.1 mg/Kg orally daily day 4 to day 20), 60% in the series on B16-F1 melanoma tumor (0.5 mg/Kg orally daily day 4 to day 20), 67% in the series on B16-F1 melanoma tumor (1 mg/Kg orally daily day 4 to day 20) and 84% in the series on B16-F1 melanoma tumor (2 mg/Kg orally daily day 4 to day 20). Further, the “survival compared with non-treated group” value with B16-F1 melanoma tumor (2 mg/Kg orally, treatment stopped on day 20) is given as “survived longer”. In addition, the tumor volume result with B16-F1 melanoma tumor (oral, daily from day 4 post tumor implantation, all four concentrations tested, measured day 12) was “significantly reduced”. Besides, the IC50 – broadly, the concentration needed to halve the response being measured – in series [2] is 0.1 to 10 nM.
